# According to ChEMBL document CHEMBL1134697, “Synthesis and antiproliferative activity of epoxy and bromo compounds derived from estrone” (Bioorg Med Chem Lett, 2001):
# Key:
# [1] = Antiproliferative activity was determined after 48 hr exposure to human melanoma Fem-X cell; type: functional, cell-based
# HeLa = assay: Antiproliferative activity was determined after 48 hr exposure to human cervix carcinoma HeLa cells; type: functional, cell-based
# K562 [2] = assay: Antiproliferative activity was determined after 48 hr exposure to human myelogenous leukemia K562 cells; type: functional, cell-based; conditions: K562, 48 h
# P388 = assay: Concentration required for antiproliferative activity against P388 cell survival by 50%; type: functional, cell-based; conditions: Mus musculus
# [3] = Antiproliferative activity was determined after 72 hr exposure to human melanoma Fem-x cells; type: functional, cell-based
# K562 [4] = assay: Antiproliferative activity was determined after 72 hr exposure to human myelogenous leukemia K562 cells; type: functional, cell-based; conditions: K562, 72 h
# [5] = Antiproliferative activity was determined after 72 hr exposure to normal human peripheral blood mononuclear cells (PBMC) in the absence of 5 ug/mL Phytohemagglutinine; type: functional
# [6] = Antiproliferative activity was determined after 72 hr exposure to normal human peripheral blood mononuclear cells (PBMC) in the presence of 5 ug/mL Phytohemagglutinine; type: functional
Compound,IC50 [1] [µM],IC50 (HeLa) [µM],IC50 (K562 [2]) [µM],IC50 (P388) [µM],IC50 [3] [µM],IC50 (K562 [4]) [µM],IC50 [5] [µM],IC50 [6] [µM]
C[C@]12CC[C@H]3[C@@H](CC[C@]45O[C@H]4C(=O)C=C[C@]35O)[C@@H]1CCC2=O,7.1,5.73,6.22,,,,,
O=C1C(Br)=C[C@H](O)[C@H]2O[C@@H]12,,,,0.049,,,,
C[C@]12CCC3[C@@H](CC[C@]45O[C@H]4C(=O)C(Br)=C[C@]35O)[C@@H]1CCC2=O (some centres undefined),6,2.5,1.2,,1,0.7,2.9,1.3
C[C@]12CCC3C(CCC4=CC(=O)C=C[C@@]43O)C1CCC2=O (some centres undefined),> 100,> 100,> 100,,,,,
C[C@]12CCC3[C@@H](CCC4=C(Br)C(=O)C=C[C@@]43O)[C@@H]1CCC2=O (some centres undefined),14.5,6.17,13.7,,4.6,5.9,12.3,5.2
C[C@]12CCC3C(CC[C@]45O[C@H]4[C@@H](O)C=C[C@]35O)C1CCC2O (some centres undefined),> 270,> 270,> 270,,,,,
